According to ChEMBL document CHEMBL1781914, “Syntheses and initial evaluation of a series of indolo-fused heterocyclic inhibitors of the polymerase enzyme (NS5B) of the hepatitis C virus” (Bioorg Med Chem Lett, 2011):

Columns and labels:
Hepatitis C virus [1] = test: Antiviral activity against HCV infected in human Huh7 cells assessed as inhibition of viral replication by luciferase assay; assay type: functional, organism-based, Hepacivirus hominis; details: Huh-7
Hepatitis C virus [2] = test: Inhibition of HCV genotype 1b NS5B polymerase expressed in Escherichia coli BL21(DE3) after 60 mins by FRET assay; set-up: species or system Hepatitis C virus subtype 1b; details: BL21-DE3, 1 h
[3] = Oral bioavailability in rat; assay type: ADME, organism-based; details: in vivo
[4] = Drug clearance in rat at 2 mg/kg, iv; assay type: ADME, organism-based; set-up: dose 2 mg/kg, route intravenous; details: in vivo
[5] = AUC in iv and po dosed rat; assay type: ADME, organism-based; details: plasma

`O=C(O)c1ccc2c(C3CCCCC3)c3n(c2c1)CCOc1ccccc1-3` showed an EC50 (Hepatitis C virus [1]) of 0.59 µM and an IC50 (Hepatitis C virus [2]) of 0.69 µM.

In the case of `O=C(O)/C=C/c1ccc(OC(=O)C2(NC(=O)c3ccc4c(C5CCCCC5)c5n(c4c3)CC(=O)Nc3ccccc3-5)CCCC2)cc1`, the bioavailability [3] is reported as 3%, the EC50 (Hepatitis C virus [1]) is reported as 0.01 µM and the clearance [4] is reported as 13 mL/min/kg. The AUC [5] was 0.66 µM·h and the IC50 (Hepatitis C virus [2]) was 0.02 µM.

Compound `O=C(O)c1ccc2c(C3CCCCC3)c3n(c2c1)CCCCNc1ccccc1-3` has an EC50 (Hepatitis C virus [1]) of 0.27 µM and an IC50 (Hepatitis C virus [2]) of 0.6 µM.

In the case of `O=C(O)/C=C/c1ccc(OC(=O)C2(NC(=O)c3ccc4c(C5CCCCC5)c5n(c4c3)CCCc3ccccc3-5)CCCC2)cc1`, the bioavailability [3] is reported as 8%, the EC50 (Hepatitis C virus [1]) is reported as 0.02 µM and the clearance [4] is reported as 250 mL/min/kg. For the same compound, the AUC [5] was 0.28 µM·h and the IC50 (Hepatitis C virus [2]) was 0.03 µM.

With `O=C1Cn2c(c(C3CCCCC3)c3ccc(C(=O)O)cc32)-c2ccccc2N1` the bioavailability [3] was 17.6%, the EC50 (Hepatitis C virus [1]) was 0.24 µM and the IC50 (Hepatitis C virus [2]) was 0.07 µM.

With `O=C(O)/C=C/c1ccc(OC(=O)C2(NC(=O)c3ccc4c(C5CCCCC5)c5n(c4c3)CCOc3ccccc3-5)CCCC2)cc1` the bioavailability [3] was 5%, the EC50 (Hepatitis C virus [1]) was 0.01 µM and the clearance [4] was 17 mL/min/kg. It also gave an AUC [5] of 0.79 µM·h and an IC50 (Hepatitis C virus [2]) of 0.03 µM.

`O=C(O)/C=C/c1ccc(OC(=O)C2(NC(=O)c3ccc4c(C5CCCCC5)c5n(c4c3)CCCCNc3ccccc3-5)CCCC2)cc1` gave a bioavailability [3] of 12.3%, an EC50 (Hepatitis C virus [1]) of 0.02 µM and a clearance [4] of 8.7 mL/min/kg. It also gave an AUC [5] of 3.61 µM·h and an IC50 (Hepatitis C virus [2]) of 0.09 µM.

Work on `O=C(O)c1ccc2c(C3CCCCC3)c3n(c2c1)CCCc1ccccc1-3` yielded an EC50 (Hepatitis C virus [1]) of 0.7 µM and an IC50 (Hepatitis C virus [2]) of 0.84 µM.
